Laboratory results reported in US9682940B2, “Indazole derivatives useful as CB-1 inverse agonists” (Janssen Pharmaceutica NV, priority 2015, dated 2017).

Assays:
[1] = molecular target: Human CB2R (Cannabanoid receptor 2) (Homo sapiens (Human), UniProt P34972); experiment: CB-2 in vitro cAMP (HTRF) assay in HEK-293 cells; type: cell-based; conditions: HEK-293 cells stably transfected with human CB2R, 250 nM Forskolin, mean where tested more than once, read-out: CB-2 (HEK_cAMP) EC50
Method in brief: (§1)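 HEK-293 cells stably expressing human CB1 or CB2 plated overnight, then tested in HBSS/5 mM HEPES/0.1% BSA with 0.5 mM IBMX and forskolin (1.5 μM working dilution). Intracellular cAMP quantified by competitive HTRF immunoassay (d2-cAMP, cryptate anti-cAMP) against a cAMP standard curve; compounds as 1/3 serial dilutions from 10 mM DMSO stocks.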

Mouse Fast PK/BBB = type: in vivo, Male C57bl/6j mice; conditions: oral
Procedure: Male C57bl/6j mice were ordered from Charles River at 22-25 g and housed 3 per cage. They were fed standard chow (Purina 5001).
Male C57bl/6j mice were dosed with test compounds at 20 mg/kg or 30 mg/kg. Plasma was collected via retro-orbital bleeding at 1 hr and 4 hrs after dosing. Whole brain without cerebellum was collected at 4 hrs after dosing. Wet brain weight was recorded before freezing. Brains were homogenized in saline and sent for analysis for determination of concentration of test compound.

[2] = molecular target: Human CB1R (Cannabanoid receptor 1) (Homo sapiens (Human), UniProt P21554); experiment: CB-1 in vitro cAMP (HTRF) assay in HEK-293 cells; type: cell-based; conditions: HEK-293 cells stably transfected with human CB1R, 250 nM Forskolin, mean where tested more than once, read-out: CB-1 (HEK_cAMP) EC50
Human CB1R (Cannabanoid receptor 1), sequence (P21554 whole entry): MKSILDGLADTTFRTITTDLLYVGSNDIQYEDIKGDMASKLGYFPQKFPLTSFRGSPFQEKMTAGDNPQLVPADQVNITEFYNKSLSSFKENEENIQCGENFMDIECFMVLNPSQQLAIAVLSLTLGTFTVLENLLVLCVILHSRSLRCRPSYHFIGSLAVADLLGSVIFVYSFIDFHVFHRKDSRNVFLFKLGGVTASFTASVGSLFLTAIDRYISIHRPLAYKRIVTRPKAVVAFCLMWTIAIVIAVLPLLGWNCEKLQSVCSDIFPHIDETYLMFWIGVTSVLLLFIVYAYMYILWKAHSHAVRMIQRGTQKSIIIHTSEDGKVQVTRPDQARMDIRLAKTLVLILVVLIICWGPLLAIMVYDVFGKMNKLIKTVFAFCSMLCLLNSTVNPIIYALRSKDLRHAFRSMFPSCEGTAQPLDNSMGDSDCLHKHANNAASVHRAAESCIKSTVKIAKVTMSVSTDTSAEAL
Method in brief: as §1

Human CB2R (Cannabanoid receptor 2), sequence (P34972 whole entry): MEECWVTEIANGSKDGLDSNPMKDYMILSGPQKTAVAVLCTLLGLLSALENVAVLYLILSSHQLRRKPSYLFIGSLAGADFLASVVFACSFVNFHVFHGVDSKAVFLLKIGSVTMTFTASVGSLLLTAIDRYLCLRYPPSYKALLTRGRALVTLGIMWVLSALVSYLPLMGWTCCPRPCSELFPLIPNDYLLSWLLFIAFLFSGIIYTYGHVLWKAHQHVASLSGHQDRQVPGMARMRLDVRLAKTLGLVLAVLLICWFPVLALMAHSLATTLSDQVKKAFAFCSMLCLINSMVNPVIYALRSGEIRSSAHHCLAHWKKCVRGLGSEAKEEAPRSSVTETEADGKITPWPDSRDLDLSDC

Row | SMILES | EC50 [1] | EC50 [2] | PLASMA Mean Conc. (ng/mL) ± Std. Dev (Mouse Fast PK/BBB; Dose 30 mg/kg, Time 1 hr) | PLASMA Mean Conc. (ng/mL) ± Std. Dev (Mouse Fast PK/BBB; Dose 30 mg/kg, Time 4 hr) | BRAIN Mean Conc. (ng/mL) ± Std. Dev (Mouse Fast PK/BBB; Dose 30 mg/kg, Time 1 hr) | BRAIN Mean Conc. (ng/mL) ± Std. Dev (Mouse Fast PK/BBB; Dose 30 mg/kg, Time 4 hr) | other results
1 | O=S(=O)(N1CCC(c2n[nH]c3ccc(C(c4ccc(Cl)cc4)c4ccc(Cl)cc4)cc23)CC1)C(F)(F)F [Compound 35] | > 10 µM | 5 nM | – | – | – | – | BRAIN Mean Conc. (ng/mL) ± Std. Dev (ng/mL) (Mouse Fast PK/BBB; Dose 20 mg/kg, Time 1 hr): BLOQ ± NA; PLASMA Mean Conc. (ng/mL) ± Std. Dev (Mouse Fast PK/BBB; Dose 20 mg/kg, Time 1 hr): 3613 ± 253 ng/mL; BRAIN Mean Conc. (ng/mL) ± Std. Dev (ng/mL) (Mouse Fast PK/BBB; Dose 20 mg/kg, Time 4 hr): BLOQ ± NA; PLASMA Mean Conc. (ng/mL) ± Std. Dev (Mouse Fast PK/BBB; Dose 20 mg/kg, Time 4 hr): 611 ± 125 ng/mL
2 | NC(=O)c1cccc(CN2CCC(c3nn(C4CC4)c4ccc(C(c5ccc(Cl)cc5)c5ccc(Cl)cc5)cc34)CC2)c1 [Compound 206] | > 10 µM | 8 nM | 333.5 ± 70.5 ng/mL | 532.8 ± 58.9 ng/mL | 21.5 ng/mL | 30.6 ± 6.5 ng/mL | –
3 | O=C(O)c1cccc(CN2CCC(c3nn(C4CC4)c4ccc(C(c5ccc(Cl)cc5)c5ccc(Cl)cc5)cc34)CC2)c1 [Compound 207] | 9.7 µM | 9 nM | 7373 ± 867 ng/mL | 4317 ± 856 ng/mL | 516 ± 44.2 ng/mL | 1180 ± 115 ng/mL | –
4 | O=C(O)c1ccc(CN2CCC(c3c4cc(C(c5ccc(Cl)cc5)c5ccc(Cl)cc5)ccc4nn3C3CC3)CC2)cc1 [Compound 256, 4-((4-(5-(bis(4-chlorophenyl)methyl)-2-cyclopropyl-2H-indazol-3-yl)piperidin-1-yl)methyl)benzoic acid] | > 10 µM | 30 nM | – | – | – | – | –
5 | NC(=O)CCS(=O)(=O)N1CCC(c2c3cc(C(c4ccc(Cl)cc4)c4ccc(Cl)cc4)ccc3nn2C2CC2)CC1 [Compound 134] | > 10 µM | 216 nM | – | – | – | – | –

Continued, in another order:

Row | EC50 [1] | EC50 [2] | SMILES | PLASMA Mean Conc. (ng/mL) ± Std. Dev (Mouse Fast PK/BBB; Dose 30 mg/kg, Time 1 hr) | PLASMA Mean Conc. (ng/mL) ± Std. Dev (Mouse Fast PK/BBB; Dose 30 mg/kg, Time 4 hr) | BRAIN Mean Conc. (ng/mL) ± Std. Dev (Mouse Fast PK/BBB; Dose 30 mg/kg, Time 1 hr) | BRAIN Mean Conc. (ng/mL) ± Std. Dev (Mouse Fast PK/BBB; Dose 30 mg/kg, Time 4 hr) | other results
6 | > 10 µM | 26 nM | O=C(O)c1ccc([C@@H](c2ccc(Cl)cc2)c2ccc3[nH]nc(C4CCN(S(=O)(=O)C(F)(F)F)CC4)c3c2)cc1 [Compound 232] | 1763 ± 474 ng/mL | 196 ± 88.0 ng/mL | – | – | BRAIN Mean Conc. (ng/mL) ± Std. Dev (ng/mL) (Mouse Fast PK/BBB; Dose 30 mg/kg, Time 1 hr): BLOQ ± NA; BRAIN Mean Conc. (ng/mL) ± Std. Dev (ng/mL) (Mouse Fast PK/BBB; Dose 30 mg/kg, Time 4 hr): BLOQ ± NA
7 | > 10 µM | 16 nM | O=C(O)c1ccc([C@@H](c2ccc(Cl)cc2)c2ccc3[nH]nc(N4CCN(S(=O)(=O)C(F)(F)F)CC4)c3c2)cc1 [Compound 234] | 8693 ± 499 ng/mL | 979 ± 376 ng/mL | 11.2 ± 3.95 ng/mL | 8.31 ± 2.31 ng/mL | –
8 | 4.03 µM | 2 nM | COc1cc(S(=O)(=O)N2CCC(c3c4cc(C(c5ccc(Cl)cc5)c5ccc(Cl)cc5)ccc4nn3C3CC3)CC2)ccc1C(=O)O [Compound 157, 4-(4-(5-(bis(4-chlorophenyl)methyl)-2-cyclopropyl-2H-indazol-3-yl)piperidin-1-ylsulfonyl)-2-methoxybenzoic acid] | – | – | – | – | concentration at 1 hr (Mouse Fast PK/BBB; male, C57bl/6j, plasma, Dose 30 mg/kg, Time 1 hr, read-out: PLASMA Mean Conc. (ng/mL) ± Std. Dev): 241 ± 117 ng/mL; concentration at 4 hr (Mouse Fast PK/BBB; male, C57bl/6j, plasma, Dose 30 mg/kg, Time 4 hr, read-out: PLASMA Mean Conc. (ng/mL) ± Std. Dev): 13 ± 1.7 ng/mL; BRAIN Mean Conc. (ng/mL) ± Std. Dev (ng/mL) (Mouse Fast PK/BBB; Dose 30 mg/kg, Time 1 hr): BLOQ ± NA; BRAIN Mean Conc. (ng/mL) ± Std. Dev (ng/mL) (Mouse Fast PK/BBB; Dose 30 mg/kg, Time 4 hr): BLOQ ± NA
9 | > 10 µM | 5 nM | CNC(=O)c1ccc(S(=O)(=O)N2CCC(c3c4cc(C(c5ccc(Cl)cc5)c5ccc(Cl)cc5)ccc4nn3C3CC3)CC2)cc1F [Compound 176, 4-(4-(5-(bis(4-chlorophenyl)methyl)-2-cyclopropyl-2H-indazol-3-yl)piperidin-1-ylsulfonyl)-2-fluoro-N-methylbenzamide] | – | – | – | – | –
